Source: PubChem BioAssay AID1259411 (Chemical Carcinogenesis Research Information System (CCRIS), 2018)
Active and inactive are the calls of the source. No rule for the calls is given here.

Test system: rodent carcinogenicity bioassays, tumor incidence
Test: CCRIS carcinogenicity studies
Excerpt: The CCRIS database contains chemical records with carcinogenicity, mutagenicity, tumor promotion, and tumor inhibition test results. It was developed by the National Cancer Institute (NCI). Data are derived from studies cited in primary journals, current awareness tools, NCI reports, and other sources. Test results have been reviewed by experts in carcinogenesis and mutagenesis.
CCRIS provides historical information from the years 1985 - 2011. It is no longer updated.
This is an archive assay for CCRIS carcinogenicity studies.

## [O-][Br+2]([O-])O
Species: Hamster, Strain/Sex: Syrian golden/Male (20/group), Route: Oral, Dose: 0, 125, 250, 500, 2000 ppm in drinking water for 89 wk, study duration 89 wk, Dose: 0, 125, 250, 500, 2000 ppm in drinking water for 89 wk, study duration 89 wk, Tumor Site: Type of Lesion: Kidney: Renal adenoma (0/20, 0/20, 1/20, 2/20, 4/20)
  carcinogen call: active; positive
Species: Mouse, Strain/Sex: B6C3F1, BDF1, and CDF1/Male (27/experimental group, 15/control group), Route: Oral, Dose: 0, 750 ppm in drinking water for 88 wk, study duration 88 wk, Tumor Site: Type of Lesion: Kidney: Renal adenoma and carcinoma - B6C3F1: 0/15 (controls), 3/26 (750 ppm), BDF1: 0/15 (controls),1/27 (750 ppm), CDF, Tumor Site: Type of Lesion: Kidney: Renal adenoma and carcinoma - B6C3F1: 0/15 (controls), 3/26 (750 ppm), BDF1: 0/15 (controls),1/27 (750 ppm), CDF
  carcinogen call: active; positive
Species: Mouse, Strain/Sex: B6C3F1/Female (25/ group), Route: Oral, Dose: 0, 500, 1000 ppm in drinking water for 78 wk, followed by tap water for 26 wk, study duration 104 wk, Dose: 0, 500, 1000 ppm in drinking water for 78 wk, followed by tap water for 26 wk, study duration 104 wk
  carcinogen call: inactive; negative
Species: Mouse, Strain/Sex: Ogg1 wild type/Female (15/15)/(13/15), Route: Oral, Dose: 2 g/l in drinking water for 18 wk followed by 1 g/l in drinking water for 11 wk (Study duration: 52 wk)
  carcinogen call: inactive; negative (kidney, liver, lung, spleen, thymus, stomach, and intestine examined);
Species: Mouse, Strain/Sex: Ogg1 wild type/Male (13/15)/(15/15), Route: Oral, Dose: 2 g/l in drinking water for 18 wk followed by 1 g/l in drinking water for 11 wk (Study duration: 52 wk)
  carcinogen call: inactive; negative (kidney, liver, lung, spleen, thymus, stomach and intestine examined);
Species: RAT, Strain/Sex: F344/FEMALE, Route: ORAL, Dose: 250, 500 PPM IN DRINKING WATER FOR 110 WK, Tumor Site: Type of Lesion: KIDNEY: RENAL CELL ADENOMA, RENAL CELL ADENOCARCINOMA
  carcinogen call: active; positive
Species: RAT, Strain/Sex: F344/MALE, Route: ORAL, Dose: 0, 0.02, 0.1, 0.2, 0.4 G/L IN DRINKING WATER FOR 52, 78, OR 100 WK (STUDY DURATION: 100 WK), Dose: 0, 0.02, 0.1, 0.2, 0.4 G/L IN DRINKING WATER FOR 52, 78, OR 100 WK (STUDY DURATION: 100 WK), Tumor Site: Type of Lesion: TESTICLE: MESOTHELIOMA, KIDNEY: RENAL CELL TUMOR, THYROID: TUMOR, Tumor Site: Type of Lesion: TESTICLE: MESOTHELIOMA, KIDNEY: RENAL CELL TUMOR, THYROID: TUMOR
  carcinogen call: active; positive
Species: RAT, Strain/Sex: F344/MALE, Route: ORAL, Dose: 250, 500 PPM IN DRINKING WATER (HIGH DOSE REDUCED TO 400 PPM AT WK 60), Tumor Site: Type of Lesion: KIDNEY: RENAL CELL ADENOMA, RENAL CELL ADENOCARCINOMA, PERITONEAL CAVITY: MESOTHELIOMA
  carcinogen call: active; positive
Species: Rat, Strain/Sex: F344 (20-41/group), Route: Oral, Dose: 0, 300, 600 mg/kg single intragastric administration, study duration 87 wk, Dose: 0, 300, 600 mg/kg single intragastric administration, study duration 87 wk, Tumor Site: Type of Lesion: Kidney: Renal adenoma and carcinoma (0/20, 0/20, 4/41)
  carcinogen call: active; positive
Species: Rat, Strain/Sex: F344/Male (14-20/group), Route: Oral, Dose: 500 ppm in drinking water for 13, 26, 39, and 52 wk followed by drinking water for a study duration of 104 wk, Tumor Site: Type of Lesion: Kidney: Adenoma (10/20, 9/19,13/19, 8/14), Adenocarcinoma (2/20, 1/19, 6/19, 3/14). Peritoneum: Mesothelioma (6/20, 8/19
  carcinogen call: active; positive
Species: Rat, Strain/Sex: F344/Male (20-24/group), Route: Oral, Dose: 0, 15, 30, 60, 125, 250, 500 ppm in drinking water for 104 wk, Dose: 0, 15, 30, 60, 125, 250, 500 ppm in drinking water for 104 wk, Tumor Site: Type of Lesion: Kidney: Renal adenoma (0/19, 0/19, 0/20, 1/24, 5/24, 5/20, 6/20) and adenocarcinoma (0/19, 0/19, 0/20, 0/24, 0/24, 0/20
  carcinogen call: active; positive
Species: Rat, Strain/Sex: Fischer 344/Female (50/group), Route: Oral, Dose: 0, 10, 30, 50 mg/kg/day by gavage once daily for 104 wk, Dose: 0, 10, 30, 50 mg/kg/day by gavage once daily for 104 wk
  carcinogen call: inactive; negative
Species: Rat, Strain/Sex: Fischer 344/Male (50/group), Route: Oral, Dose: 0, 10, 30, 50 mg/kg/day by gavage once daily for 104 wk, Dose: 0, 10, 30, 50 mg/kg/day by gavage once daily for 104 wk
  carcinogen call: inactive; negative

## CCCC[C@@H](C)[C@@H](OC(=O)C[C@@H](CC(=O)O)C(=O)O)[C@H](C[C@@H](C)C[C@H](O)CCCC[C@@H](O)C[C@H](O)[C@H](C)N)OC(=O)C[C@@H](CC(=O)O)C(=O)O
Species: FISH, Strain/Sex: SHASTA RAINBOW TROUT/MALE,FEMALE, Route: ORAL, Dose: 0, 3.2, 23, 104 PPM IN DIET FOR 4 WK, RESUMED AFTER 2 WK FOR 30 WK (STUDY DURATION: 60 WK), Dose: 0, 3.2, 23, 104 PPM IN DIET FOR 4 WK, RESUMED AFTER 2 WK FOR 30 WK (STUDY DURATION: 60 WK)
  carcinogen call: inactive; negative
Species: MOUSE, Strain/Sex: B6C3F1/FEMALE, Route: ORAL, Dose: 0, 5, 15, 50, 80 PPM IN DIET FOR 104 WK (STUDY DURATION: 104 WK), Dose: 0, 5, 15, 50, 80 PPM IN DIET FOR 104 WK (STUDY DURATION: 104 WK), Tumor Site: Type of Lesion: LIVER: HEPATOCELLULAR ADENOMA, HEPATOCELLULAR CARCINOMA
  carcinogen call: active; positive
Species: MOUSE, Strain/Sex: B6C3F1/MALE, Route: ORAL, Dose: 0, 5, 15, 80, 150 PPM IN DIET FOR 104 WK (STUDY DURATION: 104 WK), Dose: 0, 5, 15, 80, 150 PPM IN DIET FOR 104 WK (STUDY DURATION: 104 WK)
  carcinogen call: inactive; negative
Species: RAT, Strain/Sex: BDIX/MALE,FEMALE, Route: ORAL, Dose: 0, 1, 10, 25 MG/KG DIET FOR 2 YR (STUDY DURATION: 2 YR), Dose: 0, 1, 10, 25 MG/KG DIET FOR 2 YR (STUDY DURATION: 2 YR)
  carcinogen call: inactive; negative
Species: RAT, Strain/Sex: BDIX/MALE, Route: ORAL, Dose: 0, 50 MG/KG DIET FOR 26 MO (STUDY DURATION: 26 MO), Tumor Site: Type of Lesion: LIVER: HEPATOCELLULAR CARCINOMA
  carcinogen call: active; positive
Species: RAT, Strain/Sex: F344/FEMALE, Route: ORAL, Dose: 0, 5, 15, 50, 100 PPM IN DIET FOR 104 WK (STUDY DURATION: 104 WK), Dose: 0, 5, 15, 50, 100 PPM IN DIET FOR 104 WK (STUDY DURATION: 104 WK)
  carcinogen call: inactive; negative
Species: RAT, Strain/Sex: F344/MALE, Route: ORAL, Dose: 0, 5, 15, 50, 150 PPM IN DIET FOR 104 WK (STUDY DURATION: 104 WK), Dose: 0, 5, 15, 50, 150 PPM IN DIET FOR 104 WK (STUDY DURATION: 104 WK), Tumor Site: Type of Lesion: KIDNEY: RENAL TUBULE ADENOMA, RENAL TUBULE CARCINOMA
  carcinogen call: active; positive

## NC(=O)NC1NC(=O)NC1=O (centres undefined)
Species: RAT, Strain/Sex: F344/FEMALE, Route: ORAL, Dose: 0, 2000 PPM IN DIET FOR 106 WK (STUDY DURATION: 130 WK)
  carcinogen call: inactive; negative
Species: RAT, Strain/Sex: F344/MALE, Route: ORAL, Dose: 0, 2000 PPM IN DIET FOR 106 WK (STUDY DURATION: 130 WK)
  carcinogen call: inactive; negative

## CC1(C)S[C@@H]2[C@H](NC(=O)[C@H](N)c3ccccc3)C(=O)N2[C@H]1C(=O)O
Species: MOUSE, Strain/Sex: B6C3F1/FEMALE, Route: GAVAGE, Dose: 0, 1500, 3000 MG/KG IN CORN OIL 5 D/WK FOR 103-104 WK (STUDY DURATION: 106 WK), Dose: 0, 1500, 3000 MG/KG IN CORN OIL 5 D/WK FOR 103-104 WK (STUDY DURATION: 106 WK)
  carcinogen call: inactive; negative
Species: MOUSE, Strain/Sex: B6C3F1/FEMALE, Route: GAVAGE, Dose: 0, 1500, 3000 MG/KG IN CORN OIL 5 D/WK FOR 103 WK, Dose: 0, 1500, 3000 MG/KG IN CORN OIL 5 D/WK FOR 103 WK
  carcinogen call: inactive; negative
Species: MOUSE, Strain/Sex: B6C3F1/MALE, Route: GAVAGE, Dose: 0, 1500, 3000 MG/KG IN CORN OIL 5 D/WK FOR 103-104 WK (STUDY DURATION: 106 WK), Dose: 0, 1500, 3000 MG/KG IN CORN OIL 5 D/WK FOR 103-104 WK (STUDY DURATION: 106 WK)
  carcinogen call: inactive; negative
Species: MOUSE, Strain/Sex: B6C3F1/MALE, Route: GAVAGE, Dose: 0, 1500, 3000 MG/KG IN CORN OIL 5 D/WK FOR 103 WK, Dose: 0, 1500, 3000 MG/KG IN CORN OIL 5 D/WK FOR 103 WK
  carcinogen call: inactive; negative
Species: RAT, Strain/Sex: F344/FEMALE, Route: GAVAGE, Dose: 0, 750, 1500 MG/KG IN CORN OIL 5 D/WK FOR 103-104 WK (STUDY DURATION: 106 WK), Dose: 0, 750, 1500 MG/KG IN CORN OIL 5 D/WK FOR 103-104 WK (STUDY DURATION: 106 WK)
  carcinogen call: inactive; negative
Species: RAT, Strain/Sex: F344/FEMALE, Route: GAVAGE, Dose: 0, 750, 1500 MG/KG IN CORN OIL 5 D/WK FOR 103 WK, Dose: 0, 750, 1500 MG/KG IN CORN OIL 5 D/WK FOR 103 WK
  carcinogen call: inactive; negative
Species: RAT, Strain/Sex: F344/MALE, Route: GAVAGE, Dose: 0, 750, 1500 MG/KG IN CORN OIL 5 D/WK FOR 103 WK (STUDY DURATION: 105 WK), Dose: 0, 750, 1500 MG/KG IN CORN OIL 5 D/WK FOR 103 WK (STUDY DURATION: 105 WK), Tumor Site: Type of Lesion: ADRENAL MEDULLA: PHEOCHROMOCYTOMAS, HEMATOPOIETIC SYSTEM: MONONUCLEAR CELL LEUKEMIA
  carcinogen call: equivocal
